Measured values as given in PubChem BioAssay (NCI).
Several values for one entry are separate records, joined by “and”; a condition that tells them apart may be missing. Equal values may be shown once.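 Cells were grown in 96-well plates and exposed to each compound for 48 hours at five concentrations; endpoints were interpolated linearly between bracketing concentrations, or set to the highest concentration if not reached. The concentration for 50% growth inhibition is given as GI50. Definition used: TGI = concentration required for complete inhibition of growth.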

Tests used:
Experiment in all cases: NCI anticancer screen, dose series, 48 h
[1] = test system: HOP-92 NSCLC
[2] = test system: M14 melanoma
[3] = test system: SF-295 CNS
[4] = test system: COLO 205 colon
[5] = test system: HS 578T breast
[6] = test system: SR leukemia
[7] = test system: SK-MEL-5 melanoma
[8] = test system: RPMI-8226 leukemia
[9] = test system: DU-145 prostate
[10] = test system: HL-60(TB) leukemia

Row | Compound | TGI [1] | TGI [2] | TGI [3] | TGI [4] | TGI [5] | TGI [6] | TGI [7] | TGI [8] | TGI [9] | TGI [10] | GI50 [3] | GI50 [8] | GI50 [1] | GI50 [2] | GI50 [10] | GI50 [5] | GI50 [6] | GI50 [7] | GI50 [9]
1 | O=C1c2cc([N+](=O)[O-])sc2C(=O)c2ccsc21 | 0.443 µM | 0.663 µM | 0.993 µM | 1.66 µM | 1.85 µM | < 0.0235 µM | 0.336 µM | 0.751 µM | 0.674 µM |  |  |  |  |  |  |  |  |  | 
2 | O=C1NC2(C=Cc3c(ccc4ccccc34)O2)Oc2ccccc21 (configuration not stated) |  | > 100 µM | 67.5 µM | 42.5 µM |  | 34.5 µM | 29.5 µM | 47.6 µM |  | 27.4 µM |  |  |  |  |  |  |  |  | 
3 | CN(C)CCNc1nc2c(no[n+]2[O-])c2ccccc12 | 45.1 µM | 30.3 µM | 81.9 µM | 66.7 µM | 76.6 µM | 74.8 µM | 28.4 µM | > 100 µM | > 100 µM |  |  |  |  |  |  |  |  |  | 
4 | O=C1N[C@@H](COc2ccc(C=Nc3ccc(CCc4ccc(N=Cc5ccc(OC[C@@H]6COC(=O)N6)cc5)cc4)cc3)cc2)CO1 |  | > 100 µM | > 100 µM | > 100 µM | > 100 µM | > 100 µM | > 100 µM | > 100 µM | > 100 µM | > 100 µM |  |  |  |  |  |  |  |  | 
5 | CC(=O)N(CN1C(=O)CCC1C(=O)O)c1ccccc1Cl (configuration not stated) | > 100 µM | > 100 µM | > 100 µM | > 100 µM | > 100 µM |  | > 100 µM | > 100 µM | > 100 µM | > 100 µM |  |  |  |  |  |  |  |  | 
6 | OCC(O)C(O)C(O)C(O)/C=N/Nc1nc(O)c(/C=C2\C=Nc3ccccc32)[nH]1 (configuration not stated) | > 100 µM | > 100 µM | > 100 µM | > 100 µM | > 100 µM |  | > 100 µM | > 100 µM | > 100 µM | > 100 µM |  |  |  |  |  |  |  |  | 
7 | O=S(=O)(/N=C(\NO)Nc1ccc(Cl)cc1)c1ccc(-c2ccccn2)s1 | > 100 µM | > 100 µM | > 100 µM | > 100 µM | > 100 µM | > 100 µM | > 100 µM |  | > 100 µM | > 100 µM |  |  |  |  |  |  |  |  | 
8 | COP(C)(=O)C(Cc1c[nH]c2ccccc12)NC(=O)OCc1ccccc1 (configuration not stated) | > 100 µM | > 100 µM | > 100 µM | > 100 µM | > 100 µM |  | > 100 µM | > 100 µM | > 100 µM | > 100 µM |  |  |  |  |  |  |  |  | 
9 | CSC1=C(C(=O)Nc2ccccc2)C(N)=NC1=O |  |  |  | > 100 µM | > 100 µM | > 100 µM | > 100 µM | > 100 µM | > 100 µM | > 100 µM |  |  |  |  |  |  |  |  | 
10 | CCCCCCCCCCSCC(CO)NC(=O)/C=C/c1c(C)[nH]c(=O)[nH]c1=O (configuration not stated) | 3.72 µM and > 20.3 µM |  | > 50 µM | 8.39 µM and 17.6 µM |  |  | 8.06 µM and 13.1 µM | > 50 µM |  | > 35.2 µM and 6.35 µM | 14.6 µM | 19.7 µM |  |  |  |  |  |  | 
11 | Cc1ccc2c(=O)c(-c3n[nH]c(=S)s3)c[nH]c2n1 |  | > 100 µM | > 100 µM | > 100 µM | > 100 µM |  | > 100 µM | > 100 µM | > 100 µM | > 100 µM |  |  |  |  |  |  |  |  | 
12 | CC[C@H](C)C1=C(OC(C)=O)[N@+]2([O-])Oc3ccc(-c4c(OC(C)=O)c(OC(C)=O)c(-c5ccc(OC(C)=O)cc5)c(OC(C)=O)c4OC(C)=O)cc3O[C@]2([C@@H](C)CC)C(=O)N1OC(C)=O |  | > 50 µM | 27.1 µM | 15.8 µM |  | 28 µM | 22.5 µM | 22.4 µM | > 50 µM | 21.7 µM |  |  |  |  |  |  |  |  | 
13 | NCCCC[C@H](N)C(=O)Nc1ccc(-c2nc3ccccc3s2)cc1Cl | 60 µM | 13.8 µM | 10.2 µM | 17.9 µM | 51.5 µM |  | 25.9 µM |  | 18 µM |  |  |  |  |  |  |  |  |  | 
14 | COc1ccc2[nH]c(O)c(/C=c3/cc4c(c(-c5ccc(F)cc5)n3)=Nc3ccccc3-4)c2c1 | 41.3 µM | 3.85 µM | 31.2 µM |  | 7.48 µM | 6.65 µM | 15.8 µM | 32.9 µM | 7.96 µM | > 100 µM | 10.5 µM | 3.73 µM | 13.6 µM | 1.98 µM | 9.2 µM | 2.02 µM | 1.07 µM | 3.47 µM | 2.97 µM
15 | CC1CN=C(c2ccc(COc3ccc(C4=NCC(C)N4)cc3)cc2)N1 (configuration not stated) | > 100 µM | > 100 µM | > 100 µM | > 100 µM | > 100 µM |  | > 100 µM | > 100 µM | > 100 µM | > 100 µM |  |  |  |  |  |  |  |  | 
16 | c1ccc(CCn2cncn2)cc1 | > 100 µM | > 100 µM | > 100 µM | > 100 µM |  | > 100 µM | > 100 µM |  |  | > 100 µM |  |  |  |  |  |  |  |  | 
17 | COc1ccccc1N=C1SCCN1C(=S)Nc1ccc(S(=O)(=O)/N=C/N(C)C)cc1 | > 100 µM | > 100 µM | > 100 µM | > 100 µM |  |  | 37 µM | 68.4 µM | > 100 µM | > 100 µM |  |  |  |  |  |  |  |  | 
18 | C[N+](C)(N)c1nc(N)c(C#N)c(C#N)c1C#N |  | > 10 µM | > 10 µM | > 10 µM | > 10 µM | > 10 µM | > 10 µM | > 10 µM | > 10 µM | > 10 µM |  |  |  |  |  |  |  |  | 
19 | c1ccc(C2[C@@H]3CCCc4ccccc4C3=NN2c2ccccc2)cc1 (some centres not stated) |  |  | > 100 µM | > 100 µM |  | > 100 µM | 47.1 µM | > 100 µM |  | > 100 µM |  |  |  |  |  |  |  |  | 
20 | COC(=O)[C@H](CCSC)NC(=O)c1ccc(CNC(=O)/C(C)=C/c2ccccc2)cc1 | 72.2 µM | 83.7 µM | > 100 µM | > 100 µM |  | > 100 µM | > 100 µM | > 100 µM | > 100 µM |  |  |  |  |  |  |  |  |  | 
21 | CC(/C=N/NC1=NCCCN1)=N\NC1=NCCCN1 | > 100 µM | > 100 µM | > 100 µM | > 100 µM | > 100 µM | > 100 µM | > 100 µM | > 100 µM |  |  |  |  |  |  |  |  |  |  | 
22 | CCC1(O)CC(OC2CC(N(C)C)C(OC3CC(O)C(OC4CCC(=O)C(C)O4)C(C)O3)C(C)O2)c2c(O)c3c(c(O)c2C1C(=O)OC)C(=O)c1cccc(O)c1C3=O (configuration not stated) | 0.763 µM and 2.17 µM | 0.013 µM | 0.121 µM and 0.33 µM | 0.124 µM |  |  | 0.0261 µM | 0.0755 µM | 0.124 µM | 0.0496 µM |  |  |  |  |  |  |  |  | 
23 | CCN(CC)CCC(=O)c1ccc(Oc2ccc(F)cc2)cc1 | 34 µM | 34.9 µM | > 100 µM | 33.7 µM | 60.2 µM | > 100 µM |  | 56.4 µM | 53.1 µM |  |  |  |  |  |  |  |  |  | 
